Measurements taken from US20230125429A1 (priority 2017, published 2023).
Several values for one entry are separate records, joined by “and”; a condition that tells them apart may be missing. Equal values may be shown once. Entries after “also recorded” stand apart in the source; their conditions may differ.

Key:
[1] = tested on: A498; assay: Growth inhibitory effect, one hour exposure (IncuCyte Zoom); assay type: cell-based, human; conditions: A498, Renal
Protocol: (§1) Cancer cell lines and immortalized human cell lines were cultured in 1640 tissue culture medium (Corning, USA) with 10% fetal bovine serum in a standard tissue culture condition of 37° C. and 5% CO2.
(§2) For primary hepatocytes, the seeded cells were monitored for up to 48 hours either without any treatment (as a control) or with various types of treatments. For primary keratinocytes, cells in 48-well plates were monitored either without any treatment or with various types of treatment for up to 96 hours. For HepG2, cells 96-well plates were monitored either without any treatment or with various types of treatments for up to 48 hours. The IncuCyte Zoom was set to take a set of images at fixed locations (4 per well for 96-well plates and 16 per well for 48-well plates and 12-well plates) every three hours.
(§3) The one-hour exposure is intended to simulate the transient high concentrations within the liver as the results of either the first pass effects of some orally administered drugs, or of locally delivered drugs, anticipating that such a short term exposure is nevertheless sufficient to affect certain cell surface receptors without causing any significant off-target effects due to intracellular absorption. Such a strategy would also reduce false hits due to reversible cell cycle arrests.
(§4) To address this possibility, we investigated whether other cell lines, including other HCC cell lines, cell lines from other type of cancers, as well as non-cancer immortalized/transformed cell lines, were also sensitive to Triptonide. Specifically, a total of 51 human cancer cell lines, representing 10 types of human cancers (6 non-small cell lung cancer cell lines, 5 colon cancer cell lines, 5 central nerve system cancer cell lines, 8 Melanomas cell lines, 4 ovarian cancer cell lines, 4 renal cancer cell lines, 2 prostate cancer cell lines, 3 breast cancer cell lines, 7 hepatocellular carcinoma cell lines, and 4 gastric cancer cell lines) were analyzed.

[2] = tested on: AGS; assay: as above; assay type: cell-based, human; conditions: Gastric cancer
Protocol: as §1, §2, §3, §4

[3] = tested on: BGC823; assay: as above; assay type: cell-based, human; conditions: BGC823, Gastric cancer
Protocol: as §1, §2, §3, §4

[4] = tested on: DU-145; assay: as above; assay type: cell-based, human; conditions: DU-145, Prostate
Protocol: as §1, §2, §3, §4

[5] = tested on: EKVX; assay: as above; assay type: cell-based, human; conditions: Non-Small Cell Lung
Protocol: as §1, §2, §3, §4

[6] = tested on: HCT-15; assay: as above; assay type: cell-based, human; conditions: HCT-15, Colon
Protocol: as §1, §2, §3, §4

[7] = tested on: MDA-MB-435; assay: as above; assay type: cell-based, human; conditions: MDA-MB-435, Melanoma
Protocol: as §1, §2, §3, §4

[8] = tested on: MGC803; assay: as above; assay type: cell-based, human; conditions: MGC803, Gastric cancer
Protocol: as §1, §2, §3, §4

[9] = tested on: NCI-H226; assay: as above; assay type: cell-based, human; conditions: NCI-H226, Non-Small Cell Lung
Protocol: as §1, §2, §3, §4

[10] = tested on: NCI-H23; assay: as above; assay type: cell-based, human; conditions: NCI-H23, Non-Small Cell Lung
Protocol: as §1, §2, §3, §4

[11] = tested on: NCI-H460; assay: as above; assay type: cell-based, human; conditions: NCI-H460, Non-Small Cell Lung
Protocol: as §1, §2, §3, §4

[12] = tested on: NCI-H522; assay: as above; assay type: cell-based, human; conditions: NCI-H522, Non-Small Cell Lung
Protocol: as §1, §2, §3, §4

[13] = tested on: SF-295; assay: as above; assay type: cell-based, human; conditions: SF-295, CNS
Protocol: as §1, §2, §3, §4

[14] = tested on: SK-MEL-28; assay: as above; assay type: cell-based, human; conditions: SK-MEL-28, Melanoma
Protocol: as §1, §2, §3, §4

[15] = tested on: SK-OV-3; assay: as above; assay type: cell-based, human; conditions: SK-OV-3, Ovarian
Protocol: as §1, §2, §3, §4

[16] = tested on: SN12C; assay: as above; assay type: cell-based, human; conditions: Renal
Protocol: as §1, §2, §3, §4

[17] = tested on: SNU-387; assay: as above; assay type: cell-based, human; conditions: SNU-387, Hepatocellular carcinoma
Protocol: as §1, §2, §3, §4

[18] = tested on: UACC-257; assay: as above; assay type: cell-based, human; conditions: UACC-257, Melanoma
Protocol: as §1, §2, §3, §4

[19] = tested on: UACC-62; assay: as above; assay type: cell-based, human; conditions: UACC-62, Melanoma
Protocol: as §1, §2, §3, §4

[20] = tested on: LO2; assay: as above; assay type: cell-based, human; conditions: LO2, immortalized hepatocytes
[21] = tested on: serum starved HepG2 cells; assay type: cell-based, human
[22] = tested on: Par2 knockout keratinocytes; assay: Growth of Par2 knockout primary keratinocytes, one hour treatment; assay type: cell-based, mouse; conditions: one hour treatment
[23] = tested on: phosphorylated histone H3 (p-H3); assay: Histone H3 phosphorylation in HepG2 cells (Western blot); assay type: cell-based, human; conditions: 1 µM for 1 hour, 2 hours after mimosine release; monitored to hour 12
Protocol: HepG2 cells were synchronized by mimosine for 28 hours and released into regular culture medium for 2 hours. […] After the treatment, cells were incubated in the regular culture condition and samples were harvested every hour from 2 to 12 hours (shown on top of the top panel). Western blots were performed to determine the relative levels of phosphorylated histone H3 (p-H3), CDK1 and beta actin (ATCB) (as controls).
After treatments, cells were harvested and protein extracts were prepared by lysis in RIPA buffer (Solarbio). Western blots were performed using specific antibodies and SuperSignal® West Pico Chemiluminescent Substrate (Pierce). Antibodies were purchased from commercial venders as described below: polyclonal rabbit anti-PAR2 antibodies (ABGENT), polyclonal rabbit anti-Beta-Actin antibodies (Cell Signaling Technology), anti-ERK (Cell Signaling Technology), anti-phosphorylated ERK (Cell Signaling Technology), anti-phosphorylated histone H3 (Abchem), anti-CDK1 (Abcam).
After the Triptonide treatments, cells were returned to regular culture condition and samples were harvested at various time points for Western blot analysis.

[24] = tested on: cAMP; assay: Measurement of cAMP levels in HepG2 cells; assay type: cell-based, human
[25] = tested on: PMHs
[26] = cited from earlier work
[27] = rodents, intraperitoneal injection

## CC(C)[C@]12O[C@H]1[C@@H]1O[C@@]13[C@@]1(C)CCC4=C(COC4=O)[C@@H]1C[C@@H]1O[C@@]13C2=O [Triptonide]
[1]
  IC50: 4.34 µM
[2]
  IC50: 4.07 µM
[3]
  IC50: 10.4 µM
[4]
  IC50: 2380 nM
[5]
  IC50: 2380 nM
[6]
  IC50: 1180 nM
[7]
  IC50: 1910 nM
[8]
  IC50: 2580 nM
[9]
  IC50: 11.2 µM
[10]
  IC50: 410 nM and 415 nM
[11]
  IC50: 8.44 µM
[12]
  IC50: 23.1 µM
[13]
  IC50: 14.6 µM
[14]
  IC50: 17.8 µM
[15]
  IC50: 3.89 µM
[16]
  IC50: 1070 nM
[17]
  IC50: 6.82 µM
[18]
  IC50: 16 µM
[19]
  IC50: 9.35 µM
[20]
  IC50: 642 nM
[21]
  cells exhibiting the features of mitotic catastrophe: approximately 60%
  effect on growth of serum starved HepG2 cells: no significant impacts; also recorded: growth inhibitory only when it was administered at the 0 and 2 hours after the starvation
[22]; 100 and 200 µM
  effect on growth of Par2 knockout keratinocytes: growth inhibitory effects
[22]; Par2 knockout keratinocytes
  IC50: 25.7 µM
[22]; concentrations up to 26 µM
  effect on growth of Par2 knockout keratinocytes: did not cause significant growth inhibition
[23]
  level of histone H3 phosphorylation: remained very low
[24]; 1 µM at 2 hours after mimosine treatment, serum-free
  amplitude of cAMP elevation versus control: about 4 folds
[24]; 1 µM at non-sensitive time, 4 hours after mimosine treatment
  levels of cAMP: modest elevation
[24]; treatment 2 hours after mimosine, Trypsin 50 nM, Triptonide 1 µM, serum-free
  levels of cAMP: two waves of elevation
[25]
  effect of continuous exposure on PMHs: complete death
  toxic effect on PMHs: no significant toxic effect
[26]; rodent, following an oral dosing
  change of plasma concentration on redistribution: several dozen folds of decrease
[26]; [27]
  T1/2 alpha: 10.2 to 11.7 min
  T1/2 beta: 4.95 to 6.49 h
